Read-outs that look alike come from different tables or passages of the source.
Legend:
Assay type in all cases: cell-based, human
[1] = system: MDA-MB-231 cells; assay: Cell viability / cell death, trypan blue exclusion, MDA-MB-231; details: for IC50: MDA-MB-231, 48 h, read-out: IC50 reducing cell viability
Description: Afterward, the selected compounds 3a–d were assayed at 50 μM for 24 and 48 h in CAL-62 and MDA-MB-231 cells to assess their ability to impair the cell viability and colony formation in either normoxia or hypoxia-induced condition, the latter obtained by adding a 200 μM cobalt chloride solution, as described in previous reports[69] (Figure 8). Most cancer cells, mainly solid types, are known to have an altered metabolism due to hypoxia, a non-physiological level of oxygen tension, which contributes to therapy resistance by causing cellular quiescence.[70] Moreover, hypoxic cancer cells can induce several factors that lead to cell proliferation and colony formation.[71]
(§1) Breast cancer cell line MDA-MB-231, anaplastic thyroid cancer cell line CAL-62 and human keratinocytes HaCaT were purchased from ATCC and were cultured in RPMI 1640 medium (R0883 Sigma Aldrich-MERCK) (MDA-MB-231 and CAL-62) or DMEM medium (11965092, Gibco) supplemented with 10% fetal bovine serum (Sigma-Aldrich-MERCK, F9665), 2 mM glutamine (G7513; Sigma-Aldrich-MERCK), 100 units/mL penicillin and 0.1 mg/mL streptomycin (P0781; Sigma-Aldrich-MERCK). Adherent cells were detached by Trypsin–EDTA solution (TA049; Sigma-Aldrich-MERCK). Cells were maintained at 37 °C in humidified incubator with 5% CO2. Cells were treated with […] (CoCl2) (Merck; C8661) dissolved in distilled, sterile water for 24 h to induce hypoxia (200 μM). Hypoxic and normoxic cells were also treated with 10/50 μM of the indicated compounds (dissolved in DMSO) for 48 h, maintaining the CoCl2 in the culture medium for hypoxic conditions. SIRT3 inhibitor 3-TYP was dissolved in DMSO and added to a final concentration of 1 μM for 24 and/or 48 h.
Cell viability was assessed by the trypan blue exclusion assay. At the end of treatments, cells were harvested and stained with 0,4% trypan blue (Merck; T8154). The cell suspension was applied to a hemocytometer and counted with phase contrast microscopy (NIKON EclipseTE2000U, Nikon Netherlands, Amsterdam, The Netherlands).

[2] = system: HIF-1α, EPAS-1, and CA-IX protein expression in MDA-MB-231; assay: Western blot of HIF-1α, EPAS-1 and CA-IX in MDA-MB-231 cells under hypoxia; details: MDA-MB-231, 50 μM, 48 h, hypoxia
Description: Based on these findings, we decided to assess the ability of the SIRT3 activators 3a–d to impair HIF-1α, EPAS-1, and CA-IX protein expression in CAL-62 (Figure 10A–F) and MDA-MB-231 (Figure 11A–F) cell lines treated with the compounds at 50 μM for 48 h and under hypoxia conditions.
as §1
The following antibodies were used in this study: ACTB (Merck; A5316), HIF1-α (Cell Signaling; 14179), HIF2/EPAS-1 (Santa Cruz Biotechnology sc-13596), HXKII (Santa Cruz Biotechnology sc-6521), CAIX (Novus Biotechnology NB100-417), SIRT3 (Cell Signaling; 2627S), MnSOD (Abcam ab13533), MnSOD K68 (Abcam ab137037), MnSOD K122 (Abcam ab214675), peroxidase-conjugated AffiniPure Goat Anti-Rabbit IgG (H + L) (Jackson ImmunoResearch; 111-035-003), and peroxidase-conjugated AffiniPure Goat Anti-Mouse IgG (H + L) (Jackson ImmunoResearch; 115-035-062).
Treated and untreated cells were collected and centrifuged at 3000 rpm for 5 min. After removing the supernatant, cells were lysed in 70 μL of lysis buffer containing: 50 mM Tris-Cl (Merck; 93352), 250 mM sodium chloride (NaCl, Merck; S7653), 5 mM ethylenediaminetetraacetic acid (EDTA; Merck; E6758), 0.1% Triton X-100 and 0.1 mM dithiothreitol (Merck; D9163) plus 1 mM phenylmethylsulfonyl fluoride (PMSF, Merck; 93482), protease inhibitor cocktail (PI; Merck; P8340), 1 mM sodium orthovanadate (NA3VO4, Merck; S6508), and 10 mM sodium fluoride (NaF, Merck; 201154) (lysis buffer). After 30 min on ice, samples were centrifuged at 13,000 rpm for 10 min at 4 °C, and the supernatants collected. Protein concentration was determined by the Bradford assay (Bio-Rad; 500-0205). The equivalent of 15 or 50 μg of protein was boiled for 5 min, electrophoresed onto denaturing SDS-PAGE gel, and transferred onto a […] nitrocellulose membrane (Bio-Rad; 162-0115). After blocking with 5% milk, membranes were incubated with the appropriate primary antibody overnight. The next day, after three washes with 0.1% Tween 20 (Merck; P9416) in PBS (PBST) for 30 min at rt, membranes were incubated with the appropriate secondary antibody for 1 h at rt. After three more washes in PBST, the detection of the relevant protein was assessed by enhanced chemiluminescence (Lite Ablot TURBO, Euro-Clone; EMP012001). Densitometric analysis of the bands, relative to ACTB, was performed using ImageJ Software v1.51 (NIH, Bethesda, MD, USA).

[3] = system: SNAIL, SLUG, ZEB1, COL1A2, MMP2/9 expression in MDA-MB-231; assay: qRT-PCR of EMT master regulator and ECM genes in MDA-MB-231 cells; details: 48 h; for EMT master regulator and ECM gene expression: MDA-MB-231, 10 μM; for SLUG expression / SNAIL, ZEB1, COLLAGEN, and MMP2/9 gene expression / SLUG gene expression / SNAIL, COL1A2, and MMP2/9 expression levels: MDA-MB-231, 50 μM; for SLUG expression / SNAIL, ZEB1, COLLAGEN, and MMP2/9 gene expression: hypoxic conditions (CoCl2); for SLUG gene expression / SNAIL, COL1A2, and MMP2/9 expression levels: normoxia
Description: Afterward, based on the double localization described for SIRT3, which was primarily found into the mitochondria but translocated into the nucleus in stressful conditions,[75] the effects of SIRT3 activators on gene expression regulation were evaluated in MDA-MB-231 cells.
Considering the previously described involvement of hypoxia in EMT induction,[78] we extended our biological study by analyzing the effects of SIRT3 activators on gene expression regulation under hypoxic conditions. Hypoxia induction of EMT was verified by gene expression analysis (upregulation of SNAIL, ZEB1, COLLAGEN, MMPs, and SLUG) after 72 h of treatment with CoCl2. In these experimental conditions, we verified the effectiveness of the previously tested SIRT3 activators 3c and 3d (50 μM, 48 h) in reducing EMT genes expression.
RNAs were extracted by ReliaPrep RNA tissue miniprep system (Promega, Madison, WI, USA) and reverse transcribed with an iScriptTM c-DNA synthesis kit (Bio-Rad Laboratories Inc., Hercules, CA, USA). Real-time (RT-qPCR) analyses were performed on cDNAs that were amplified by the qPCR reaction using GoTaq qPCR Master Mix (Promega, Madison, WI, USA). Relative amounts obtained with the 2(−ΔCt) method were normalized with respect to the housekeeping gene human L32. Statistical analysis was performed with GraphPad Prism 8, and differences in gene expression were considered significant with a p-value <0.05.

[4] = MDA-MB-231, 50 μM, 48 h, hypoxia
[5] = MDA-MB-231, 50 μM, 48 h, normoxia

SMILES | reduction viability [1, 4] [%] | reduction viability [1, 5] [%] | EPAS-1 protein levels [2] | HIF-1α protein levels [2] | EMT master regulator and ECM gene expression [3] | SLUG expression [3] | SNAIL, ZEB1, COLLAGEN, and MMP2/9 gene expression [3] | SLUG gene expression [3] | SNAIL, COL1A2, and MMP2/9 expression levels [3] | IC50 ([1]; Homo sapiens, hypoxia) [µM] | IC50 ([1]; Homo sapiens, normoxia) [µM] | viability at 10 µM ([1]; Homo sapiens, MDA-MB-231, 10 μM, 48 h, read-out: Cell viability (%) T48) [%] | reduction in cell viability (%) at 50 µM ([1]; Homo sapiens, MDA-MB-231, 50 μM, 24 h, normoxia, read-out: viability impairment) [%] | Cell death (%) T48 ([1]; MDA-MB-231, 10 μM, 48 h) | CA-IX protein expression [2]
CCOC(=O)C1=CN(C(=O)c2cccc(OC)c2)C=C(C(=O)OCC)C1c1ccccc1 [Compound 3a, Diethyl 1-(3-methoxybenzoyl)-4-phenyl-1,4-dihydropyridine-3,5-dicarboxylate] | 11 | 60 |  |  |  |  |  |  |  |  |  |  |  |  | 
CCOC(=O)C1=CN(C(=O)c2ccc(OC)c(OC)c2)C=C(C(=O)OCC)C1c1ccccc1 [Compound 3c, Diethyl 1-(3,4-dimethoxybenzoyl)-4-phenyl-1,4-dihydropyridine-3,5-dicarboxylate] |  |  | significantly reduced | significantly reduced | effective even at 10 μM | affected | impair | not significantly affected | reduce |  |  |  |  |  | 
CCOC(=O)C1=CN(C(=O)c2cc(OC)cc(OC)c2)C=C(C(=O)OCC)C1c1ccccc1 [Compound 3d, Diethyl 1-(3,5-dimethoxybenzoyl)-4-phenyl-1,4-dihydropyridine-3,5-dicarboxylate] | 75 | 75 | significantly reduced | significantly reduced | effective even at 10 μM | affected | impair | not significantly affected | reduce | 10.6 | 3.64 | 36.3 | 34 | 63,6% | most potent
